The values below come from patent US8992998B2, “MAPK inhibition by H2” (priority 2010, dated 2015).

SMILES strings stand for the structures.

The subject of data set [1] is ROS (hydroxyl radical, superoxide, H2O2) in BMMs. Briefly: Intracellular ROS production in LPS-stimulated BMMs (HPF / CM-H2DCFDA fluorescence). The data set is classed as cell-based, mouse. The protocol:
Invitrogen) detects superoxide, H2O2, and hydroxyl radical. […] After preculture, the cells were exposed to LPS ([…]) for 30 minutes and immediately HPF fluorescence or fluorophore DCF were detected at an excitation wavelength of 485 nm and an emission wavelength of 530 nm with a fluorometric imaging plate reader, Synergy HT (Biotech Instruments, Winooski, Vt.).

Data set [2] concerns MAPKs (ERK, p38, and JNK). The note with it: non-stimulated BMMs, time dependent.
For data set [3], the system named is MAPKs (ERK, p38, and JNK). The experiment in a line: Immunoblotting of MAPKs phosphorylation in stimulated BMMs. Type of data set: cell-based, mouse. A general note: In western blotting, separated proteins are transferred to a membrane and probed.
A further data set deals with BMMs. Briefly: Proinflammatory cytokine production (ELISA) from stimulated bone marrow derived macrophages. The data set is classed as cell-based, mouse. The note with it: for IL-6 production induced by LPS (Example 5): FIG. 5C.
The test system of the next data set is DCs. The note with it: LPS stimulation.
A further data set has as its system MKP-1. The conditions noted are these: BMMs, within 20 minutes.
In data set [4] the test system is MAPKs (ERK, p38, and JNK). The experiment in a line: Phosphorylated MAPKs levels in peritoneal cells isolated from treated mice. Type of data set: in vivo, mouse. The conditions noted are these: i.p., 45 minutes prior to isolation. The protocol:
After 45 minutes, peritoneal suspensions were obtained by peritoneal lavage as previously described. […] The peritoneal cells were immediately lysed in lysis buffer and performed Immunoblotting as described above.

The test system of data set [5] is LPS-induced endotoxin shock. Briefly: LPS-induced endotoxin shock in mice: survival rate and plasma/serum TNF-α and IL-6. The data set is classed as in vivo, C57BL/6j mice.
For a further data set, the target named is p38b (Homo sapiens, UniProt Q15759). The conditions noted are these: cited from earlier work.
A further data set concerns the target T1, p38delta (Homo sapiens, UniProt O15264).
T1 sequence (O15264 1-365): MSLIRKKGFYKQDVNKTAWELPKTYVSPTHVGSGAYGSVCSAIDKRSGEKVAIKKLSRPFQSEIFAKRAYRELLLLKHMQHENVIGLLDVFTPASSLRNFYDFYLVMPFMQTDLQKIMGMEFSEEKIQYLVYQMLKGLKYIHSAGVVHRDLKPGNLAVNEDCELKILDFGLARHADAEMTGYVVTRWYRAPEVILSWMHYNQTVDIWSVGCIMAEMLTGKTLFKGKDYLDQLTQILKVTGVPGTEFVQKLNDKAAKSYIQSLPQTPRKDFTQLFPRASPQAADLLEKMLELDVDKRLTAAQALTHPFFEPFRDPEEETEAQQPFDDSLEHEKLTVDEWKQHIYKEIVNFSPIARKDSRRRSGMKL
The note with it: cited from earlier work.

In the next data set the target is T2, p38gamma (Homo sapiens, UniProt P53778).
T2 sequence (P53778 1-367): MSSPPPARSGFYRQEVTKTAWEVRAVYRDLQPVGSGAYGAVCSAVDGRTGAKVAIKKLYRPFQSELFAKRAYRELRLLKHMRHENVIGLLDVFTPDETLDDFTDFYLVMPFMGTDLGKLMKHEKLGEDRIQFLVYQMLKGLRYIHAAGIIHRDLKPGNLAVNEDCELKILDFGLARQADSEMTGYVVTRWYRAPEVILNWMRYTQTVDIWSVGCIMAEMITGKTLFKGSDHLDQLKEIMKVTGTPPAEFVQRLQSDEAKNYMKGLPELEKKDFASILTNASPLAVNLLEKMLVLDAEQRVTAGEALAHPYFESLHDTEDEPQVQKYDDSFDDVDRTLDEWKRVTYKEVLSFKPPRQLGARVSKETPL
The note with it: cited from earlier work.

Where [6] appears, read: lethal dose of LPS, treatment i.p., plasma 4 hour after LPS.

p38b, sequence (Q15759 whole entry, species assumed): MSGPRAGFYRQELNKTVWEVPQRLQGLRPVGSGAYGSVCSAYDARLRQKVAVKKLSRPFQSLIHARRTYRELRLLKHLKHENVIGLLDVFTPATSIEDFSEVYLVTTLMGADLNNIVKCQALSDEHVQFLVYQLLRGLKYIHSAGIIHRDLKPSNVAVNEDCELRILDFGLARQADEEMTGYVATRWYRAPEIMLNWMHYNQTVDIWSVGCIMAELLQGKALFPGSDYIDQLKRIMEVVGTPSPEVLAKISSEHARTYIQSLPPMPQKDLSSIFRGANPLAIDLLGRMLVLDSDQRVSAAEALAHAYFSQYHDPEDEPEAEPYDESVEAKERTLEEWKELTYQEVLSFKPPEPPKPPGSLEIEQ

Consider `[HH]` [H2, molecular hydrogen], for which the “H2 concentration at saturation” value (PBS or culture medium, 25° C.) was found to be 780 mM. Besides, for the setting “saturated H2 in water”, the pH was 7.6 and the “redox potential (ORP level)” value is −511 mV. In data set [1], the “LPS-mediated induction of fluorescence from DCF (superoxide, H2O2, or hydroxyl radical)” value is on record as “not affected” and the “LPS-mediated induction of hydroxyl radical (HPF)” value is “suppressed”. Also, the “basal levels of phosphorylated ERK, p38, and JNK” value in data set [2] is listed as “decreased”. Further, the “phosphorylation level of MAPKs induced by LPS” value in data set [3] (LPS, ERK, p38 and JNK) was “obviously decreased”. For the same compound, the “level of phosphorylated ERK, LPS-induced” value in [3] (LPS, FIG. 5E) is listed as “decreased”. For the same compound, in data set [3], the “PGN-induced phosphorylation of ERK and p38” value is “blocked”; the “poly(I:C)-induced MAPKs phosphorylation” value is “attenuated”. In the data set with BMMs (LPS stimulation), the IL-6 production entry was “suppressed”, the IL-12p40 production result is listed as “suppressed” and the TNF-α production entry is “suppressed”. For the same compound, in the data set with BMMs, the “IL-6 production induced by LPS (Example 5)” value is reported as “down-regulated”, the “IL-6 production induced by PGN” value is listed as “down-regulated”, the “IL-6 production induced by poly(I:C)” value is listed as “down-regulated” and the “TNF-α production induced by poly(I:C)” value is on record as “suppressed”. In the data set with DCs, the IL-6 production result was “suppressed”, the IL-12p40 production entry is on record as “suppressed” and the TNF-α production result is “suppressed”. The “expression of MKP-1 protein” value in the data set on MKP-1 was “up-regulated”. The “phosphorylation of MAPKs in peritoneal cells” value in data set [4] was “decreased”. For the same compound, in data set [5] (mouse, in vivo), the survival rate is listed as 90%. Further, in [5] (mouse, in vivo, po), the “protection from lethal endotoxin shock” value was “prevented the mice from lethal endotoxin shock”. In addition, in data set [5] (oral administration), the “IL-6 production in serum” value is “down-regulation” and the “TNF-a production in serum” value is “down-regulation”.
With `CC(=O)N[C@@H](CS)C(=O)O` [NAC, N-acetyl-L-cysteine, reference compound], in [1], the “LPS-mediated induction of fluorescence from DCF (superoxide, H2O2, or hydroxyl radical)” value is “remarkably inhibited” and the “LPS-mediated induction of hydroxyl radical (HPF)” value is listed as “suppressed”. In [3], the “PGN-induced phosphorylation of ERK and p38” value is “inhibited little or no”; the “poly(I:C)-induced MAPKs phosphorylation” value is “not”. For the same compound, in the data set with BMMs, the “IL-6 production induced by LPS (Example 5)” value is recorded as “still inhibited”, the “IL-6 production induced by PGN” value is “did not inhibit”, the “IL-6 production induced by poly(I:C)” value is recorded as “did not inhibit” and the “TNF-α production induced by poly(I:C)” value is reported as “not”. The “phosphorylation of MAPKs in peritoneal cells” value in data set [4] is listed as “did not reduce”. Besides, in data set [5] (setting [6]), the “serum IL-6 production” value is listed as “significantly suppressed” and the “serum TNF-α production” value is on record as “significantly suppressed”. Also, in data set [5] (mouse, in vivo), the survival rate came out at 20%. In [5] (mouse, in vivo, ip), this compound yielded a survival rate of 70%.
Take `C[S+]([O-])c1ccc(-c2nc(-c3ccncc3)c(-c3ccc(F)cc3)[nH]2)cc1` (stereo not drawn) [SB203580]: the sensitivity to inhibition entry was “sensitive” on p38b, “unaffected” on p38delta and “unaffected” on p38gamma.
